Test results from the NIST ThermoML archive (doi:10.1016/j.fluid.2015.04.017).

Assay: xn = mol fraction of the nth substance listed
Conditions: 101 kPa, Liquid; for viscosity: Concentric cylinders viscometry; for mass density: Vibrating tube method

CCOC(=O)C(C)O (stereo not drawn) [DL-ethyl lactate] + Cc1ccccc1
Conditions | mass density [kg/m3] | viscosity [mPa·s]
288.15 K, x1 = 0.1001 | 887.622 | 0.6897
288.15 K, x1 = 0.2001 | 904.719 | 0.7894
288.15 K, x1 = 0.3 | 921.906 | 0.9136
288.15 K, x1 = 0.4 | 939.168 | 1.06
288.15 K, x1 = 0.4998 | 956.144 | 1.258
288.15 K, x1 = 0.6001 | 973.156 | 1.493
288.15 K, x1 = 0.7 | 990.077 | 1.795
288.15 K, x1 = 0.7999 | 1006.73 | 2.174
288.15 K, x1 = 0.9 | 1023.31 | 2.637
288.15 K, x1 = 1 | 1039.28 | 3.207
293.15 K, x1 = 0.1001 | 882.811 | 0.6502
293.15 K, x1 = 0.2001 | 899.769 | 0.7404
293.15 K, x1 = 0.3 | 916.845 | 0.8468
293.15 K, x1 = 0.4 | 934.015 | 0.9765
293.15 K, x1 = 0.4998 | 950.923 | 1.141
293.15 K, x1 = 0.6001 | 967.906 | 1.344
293.15 K, x1 = 0.7 | 984.738 | 1.597
293.15 K, x1 = 0.7999 | 1001.36 | 1.911
293.15 K, x1 = 0.9 | 1017.91 | 2.29
293.15 K, x1 = 1 | 1033.84 | 2.75
298.15 K, x1 = 0.1001 | 877.99 | 0.6148
298.15 K, x1 = 0.2001 | 894.808 | 0.6896
298.15 K, x1 = 0.3 | 911.77 | 0.7865
298.15 K, x1 = 0.4 | 928.847 | 0.9011
298.15 K, x1 = 0.4998 | 945.727 | 1.043
298.15 K, x1 = 0.6001 | 962.633 | 1.22
298.15 K, x1 = 0.7 | 979.381 | 1.434
298.15 K, x1 = 0.7999 | 995.963 | 1.695
298.15 K, x1 = 0.9 | 1012.47 | 2.01
298.15 K, x1 = 1 | 1028.39 | 2.39
303.15 K, x1 = 0.1001 | 873.16 | 0.5814
303.15 K, x1 = 0.2001 | 889.833 | 0.6488
303.15 K, x1 = 0.3 | 906.687 | 0.7345
303.15 K, x1 = 0.4 | 923.666 | 0.8343
303.15 K, x1 = 0.4998 | 940.433 | 0.9586
303.15 K, x1 = 0.6001 | 957.336 | 1.112
303.15 K, x1 = 0.7 | 974.002 | 1.295
303.15 K, x1 = 0.7999 | 990.547 | 1.517
303.15 K, x1 = 0.9 | 1007.14 | 1.782
303.15 K, x1 = 1 | 1022.92 | 2.097
308.15 K, x1 = 0.1001 | 868.317 | 0.5513
308.15 K, x1 = 0.2001 | 884.843 | 0.6122
308.15 K, x1 = 0.3 | 901.583 | 0.6876
308.15 K, x1 = 0.4 | 918.463 | 0.7756
308.15 K, x1 = 0.4998 | 935.187 | 0.8842
308.15 K, x1 = 0.6001 | 952.011 | 1.017
308.15 K, x1 = 0.7 | 968.604 | 1.176
308.15 K, x1 = 0.7999 | 985.109 | 1.367
308.15 K, x1 = 0.9 | 1001.53 | 1.592
308.15 K, x1 = 1 | 1017.42 | 1.858
313.15 K, x1 = 0.1001 | 863.457 | 0.5218
313.15 K, x1 = 0.2001 | 879.836 | 0.5761
313.15 K, x1 = 0.3 | 896.465 | 0.6439
313.15 K, x1 = 0.4 | 913.246 | 0.7225
313.15 K, x1 = 0.4998 | 929.878 | 0.8182
313.15 K, x1 = 0.6001 | 946.664 | 0.935
313.15 K, x1 = 0.7 | 963.183 | 1.073
313.15 K, x1 = 0.7999 | 979.648 | 1.239
313.15 K, x1 = 0.9 | 996.054 | 1.432
313.15 K, x1 = 1 | 1011.9 | 1.658
318.15 K, x1 = 0.1001 | 858.58 | 0.4943
318.15 K, x1 = 0.2001 | 874.813 | 0.5433
318.15 K, x1 = 0.3 | 891.323 | 0.6042
318.15 K, x1 = 0.4 | 908.008 | 0.6744
318.15 K, x1 = 0.4998 | 924.579 | 0.7599
318.15 K, x1 = 0.6001 | 941.286 | 0.8633
318.15 K, x1 = 0.7 | 957.74 | 0.985
318.15 K, x1 = 0.7999 | 974.163 | 1.13
318.15 K, x1 = 0.9 | 990.49 | 1.296
318.15 K, x1 = 1 | 1006.36 | 1.491
323.15 K, x1 = 0.1001 | 853.686 | 0.4712
323.15 K, x1 = 0.2001 | 869.771 | 0.5163
323.15 K, x1 = 0.3 | 886.165 | 0.5718
323.15 K, x1 = 0.4 | 902.749 | 0.6343
323.15 K, x1 = 0.4998 | 919.234 | 0.7115
323.15 K, x1 = 0.6001 | 935.886 | 0.8038
323.15 K, x1 = 0.7 | 952.282 | 0.912
323.15 K, x1 = 0.7999 | 968.653 | 1.038
323.15 K, x1 = 0.9 | 984.965 | 1.186
323.15 K, x1 = 1 | 1000.79 | 1.349
